PMC9046089, “CCNE1 amplification is synthetic lethal with PKMYT1 kinase inhibition” (Nature, 2022)
Values joined by “and” are separate entries in the source; they are usually repeats but may differ in a detail not shown here. Identical values can stand only once.

Assays:
[1] = test system: cyclin B, CDK1, CDK1-pT14; assay: Immunoblot of cyclin B, CDK1 and CDK1-pT14 after HU or gemcitabine; conditions: for Quantitation of CDK1 (immunoblot of whole cell lysates) / Quantitation of CDK1-pT14 relative to total CDK1 (immunoblot of whole cell lysates) / Quantitation of cyclin B (immunoblot of whole cell lysates): FT282-hTERT-p53-R175H, DMSO = 1; for levels of cyclin B or CDK1: immunoblot and QIBC; for CDK1 pT14 levels: immunoblot, controlling for total CDK1
cytoplasmic cyclin B = assay: QIBC of cytoplasmic cyclin B intensity in EdU+ cells after HU or gemcitabine; format: cell-based; conditions: 48 h
Method: Before collection, cells were pulsed with 20 μM EdU (5-ethynyl-2-deoxyuridine, Life Technologies cat. no. A10044) for 30 min and then washed with PBS and fixed with 4% paraformaldehyde (PFA) in PBS for 15 min at room temperature. Cells were then rinsed with PBS and permeabilized using 0.3% Triton X-100/PBS for 30 min. For chromatin-bound MCM measurements, cells were pre-extracted for 15 min on ice with CSK buffer (300 mM sucrose, 100 mM NaCl, 3 mM MgCl2, 10 mM PIPES pH 7.0, 0.5% v/v Triton-X 100) before PFA fixation. […] Fresh blocking buffer containing primary antibodies was added for 2 h. Cells were rinsed three times with PBS and then blocking buffer, with secondary antibodies and 0.4 μg ml^−1 DAPI (4,6-diamidino-2-phenylindole, Sigma-Aldrich, cat. no. D9542) was added for 1 h. After rinsing with PBS, immunocomplexes were fixed again using 4% PFA/PBS for 5 min.
Cells were fixed, permeabilized and stained in the same manner as immunofluorescence described above. Wells were filled with 200 μl PBS and images were acquired at the Network Biology Collaborative Centre (LTRI) on an InCell Analyzer 6000 automated microscope (GE Life Sciences) with a 20× objective. Image analysis was performed using Cellprofiler 3.1.9 and RStudio v1.2.5019[57] (Supplementary Fig. 4).

HCC1569 cells = assay: Cell proliferation assay (Incucyte growth inhibition, synergy); format: cell-based; conditions: for % growth relative to untreated: RP-6306 0
Description: Per cent confluence relative to a non-treated control was used to evaluate growth inhibition induced by test compounds. […] (https://synergyfinder.fimm.fi).

## Nc1ccn([C@@H]2O[C@H](CO)[C@@H](O)C2(F)F)c(=O)n1 [gemcitabine]
[1]; 5 nM Gemcitabine
  Quantitation of CDK1 (immunoblot of whole cell lysates): 1.203 and 0.9791 and 1.593
  Quantitation of CDK1-pT14 relative to total CDK1 (immunoblot of whole cell lysates): 1.528 and 2.085 and 1.888
  Quantitation of cyclin B (immunoblot of whole cell lysates): 1.877 and 1.201 and 1.262
[1]
  levels of cyclin B or CDK1: did not detect increased levels
  CDK1 pT14 levels: increased
Cytoplasmic cyclin B; FT282-hTERT-p53-R175H CCNE1 high (C3), gemcitabine 5 nM
  fold-change of cytoplasmic cyclin B intensity in EdU+ cells: 1.161 and 1.404 and 1.38
Cytoplasmic cyclin B; FT282-hTERT-p53-R175H WT, gemcitabine 5 nM
  fold-change of cytoplasmic cyclin B intensity in EdU+ cells: 1.346 and 1.467 and 1.135
HCC1569 cells; 0.556 nM gemcitabine, DMSO = 100
  growth relative to DMSO control: 76.36 and 70.43
HCC1569 cells; gemcitabine 0.0524288 nM
  % growth relative to untreated: 96.4701%
HCC1569 cells; gemcitabine 0.131072 nM
  % growth relative to untreated: 85.3567%
HCC1569 cells; gemcitabine 0.32768 nM
  % growth relative to untreated: 85.2938%
HCC1569 cells; gemcitabine 0.8192 nM
  % growth relative to untreated: 45.6374%
HCC1569 cells; gemcitabine 2.048 nM
  % growth relative to untreated: 16.2355%
HCC1569 cells; gemcitabine 5.12 nM
  % growth relative to untreated: 11.6895%
HCC1569 cells; gemcitabine 12.8 nM
  % growth relative to untreated: 9.354%
HCC1569 cells; gemcitabine 32 nM
  % growth relative to untreated: 7.468%
HCC1569 cells; gemcitabine 80 nM
  % growth relative to untreated: 5.95%

## NC(=O)NO [hydroxyurea]
[1]; 400 µM HU, listed as HU
  Quantitation of CDK1 (immunoblot of whole cell lysates): 1.2117 and 1.452 and 2.133
  Quantitation of CDK1-pT14 relative to total CDK1 (immunoblot of whole cell lysates): 1.45 and 1.634 and 1.7444
  Quantitation of cyclin B (immunoblot of whole cell lysates): 1.625 and 1.428 and 1.053
[1]
  levels of cyclin B or CDK1: did not detect increased levels
  CDK1 pT14 levels: increased
Cytoplasmic cyclin B; FT282-hTERT-p53-R175H CCNE1 high (C3), HU 50 mM (so in the source), listed as HU
  fold-change of cytoplasmic cyclin B intensity in EdU+ cells: 0.9979 and 0.9823 and 1.013
Cytoplasmic cyclin B; FT282-hTERT-p53-R175H CCNE1 high (C3), HU 100 mM (so in the source), listed as HU
  fold-change of cytoplasmic cyclin B intensity in EdU+ cells: 1.038 and 1.0461 and 1.056
Cytoplasmic cyclin B; FT282-hTERT-p53-R175H CCNE1 high (C3), HU 200 mM (so in the source), listed as HU
  fold-change of cytoplasmic cyclin B intensity in EdU+ cells: 1.095 and 1.0628 and 1.094
Cytoplasmic cyclin B; FT282-hTERT-p53-R175H CCNE1 high (C3), HU 400 mM (so in the source), listed as HU
  fold-change of cytoplasmic cyclin B intensity in EdU+ cells: 1.408 and 1.403 and 1.354
Cytoplasmic cyclin B; FT282-hTERT-p53-R175H WT, HU 50 mM (so in the source), listed as HU
  fold-change of cytoplasmic cyclin B intensity in EdU+ cells: 1.011 and 1.029 and 1.0186
Cytoplasmic cyclin B; FT282-hTERT-p53-R175H WT, HU 100 mM (so in the source), listed as HU
  fold-change of cytoplasmic cyclin B intensity in EdU+ cells: 1.025 and 1.031 and 1.053
Cytoplasmic cyclin B; FT282-hTERT-p53-R175H WT, HU 200 mM (so in the source), listed as HU
  fold-change of cytoplasmic cyclin B intensity in EdU+ cells: 1.0835 and 1.059 and 1.12
Cytoplasmic cyclin B; FT282-hTERT-p53-R175H WT, HU 400 mM (so in the source), listed as HU
  fold-change of cytoplasmic cyclin B intensity in EdU+ cells: 1.261 and 1.177 and 1.385
